Assay: AGEs-degrading activity: cleavage of AGEs crosslink model substance PPD, released benzoic acid measured by HPLC
Assay type: biochemical
Description: In the present example, AGEs-degrading activities of plant extracts were evaluated with 1-phenyl-1,2-propanedione (PPD) as an index.
The AGEs-degrading activity was evaluated by measuring the cleavage reaction of crosslinks in AGEs. Specifically, the evaluation was carried out in the following manner on the basis of the method described in Vasan et al. (Vasan S, et al., An agent cleaving glucose-derived protein crosslinks in vitro and in vivo. 1996. Nature; 382: pp. 275-278).
As a model substance for crosslinks in AGEs, 1-phenyl-1,2-propanedione (PPD) was used. A degradation reaction was caused by each extract sample with PPD as a substrate. More specifically, a reaction solution having the following composition was obtained by mixing the components in an Eppendorf tube, and the resultant mixture was incubated at 37° C. for 8 hours (n=3). […] The amount of benzoic acid released by the degradation of PPD in the supernatant was measured by HPLC carried out under the following conditions. Also, the amount of benzoic acid inherently contained in the extract sample was measured by HPLC carried out under the same conditions. Furthermore, as a positive control regarding the cleavage of crosslinks, the amount of released benzoic acid was measured in the same manner, except that 500 μL of 10 mmol/L phenacylthiazolium bromide (PTB) was used instead of the extract sample. […]

O=C(C[n+]1ccsc1)c1ccccc1.[Br-] [PTB, phenacylthiazolium bromide]
Relative activity Mean ± SD (%) (AGEs crosslink cleavage ratio relative to positive control PTB = 100%): 100.0% | AGEs crosslink cleavage ratio Mean ± SD (%) (PPD substrate, 37° C. for 8 hours, n=3, molar benzoic acid produced / molar PPD (B/P)): 38.2 ± 0.7%
